From article PMC11073699, “Odorant receptors for floral- and plant-derived volatiles in the yellow fever mosquito, Aedes aegypti (Diptera: Culicidae)” (PLOS ONE, 2024)
Several values for one entry are separate records, joined by “and”; a condition that tells them apart may be missing. Equal values may be shown once.

Tests used:
Type in all cases: cell-based
AaegOR28 = molecular target: T1, AaegOR28 (Aedes aegypti, UniProt Q0IGE1); test: Two-electrode voltage clamp of Xenopus laevis oocytes expressing AaegOR28/Orco (blends, unitary compounds, concentration-response); conditions: AaegOR28, compounds of blend Alcohols 3; for Raw Data (Responses in nA), Alcohols 3 unitary compounds: individual oocytes 1-10
T1 sequence (Q0IGE1 1-394): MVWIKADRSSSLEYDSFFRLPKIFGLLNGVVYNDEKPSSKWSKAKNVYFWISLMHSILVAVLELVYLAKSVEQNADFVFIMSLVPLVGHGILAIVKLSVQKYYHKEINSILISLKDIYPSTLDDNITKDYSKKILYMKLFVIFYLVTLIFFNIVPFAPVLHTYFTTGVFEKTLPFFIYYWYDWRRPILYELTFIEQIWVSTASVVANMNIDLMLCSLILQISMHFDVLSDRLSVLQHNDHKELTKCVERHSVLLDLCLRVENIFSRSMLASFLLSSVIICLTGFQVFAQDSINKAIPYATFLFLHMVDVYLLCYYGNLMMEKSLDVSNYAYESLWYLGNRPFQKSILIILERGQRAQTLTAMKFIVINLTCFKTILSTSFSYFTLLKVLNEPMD
T1 sequence (Q178U6 1-478 partner): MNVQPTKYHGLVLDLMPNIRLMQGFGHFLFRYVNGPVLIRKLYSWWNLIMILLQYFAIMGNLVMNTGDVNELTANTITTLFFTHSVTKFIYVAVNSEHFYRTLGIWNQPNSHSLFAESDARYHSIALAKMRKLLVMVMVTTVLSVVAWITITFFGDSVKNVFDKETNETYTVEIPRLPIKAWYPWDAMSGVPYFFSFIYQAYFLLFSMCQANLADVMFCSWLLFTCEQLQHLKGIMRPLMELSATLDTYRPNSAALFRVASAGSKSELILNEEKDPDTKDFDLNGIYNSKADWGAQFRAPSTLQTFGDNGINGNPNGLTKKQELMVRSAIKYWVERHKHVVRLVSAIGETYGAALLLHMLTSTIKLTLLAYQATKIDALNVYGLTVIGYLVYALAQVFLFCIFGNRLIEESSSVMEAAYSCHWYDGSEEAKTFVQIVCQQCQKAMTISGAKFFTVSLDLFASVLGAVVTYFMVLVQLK
Description: (§1) The coding regions of ten AaegOR genes of interest (S3 File) and AaegOrco were synthesized by Twist Bioscience (San Francisco, CA, USA) and cloned into the pENTR plasmid. The Gateway LR directional cloning system (Invitrogen Corp., Carlsbad, CA, USA) was utilized to subclone AaegOR coding regions into the pSP64t-RFA oocyte expression plasmid. Plasmids were purified using the GeneJet Plasmid Miniprep Kit (ThermoFisher Scientific, Waltham, MA, USA). Purified plasmids were sequenced in both directions to confirm coding regions.
(§2) Chemical compounds (S6 File) used in the deorphanization of AaegORs were purchased from Acros Organics (Morris, NJ, USA), Alfa Aesar (Ward Hill, MA, USA), and ThermoFisher Scientific (Waltham, MA, USA) at the highest purity available. Compounds were stored as 1M stocks in 100% DMSO. Serial dilutions of each compound were prepared in 10% DMSO and blended by chemical class.
(§3) pSP64t-RFA: AaegOR clones were linearized using Xbal, and cRNAs were synthesized using the mMESSAGE mMACHINE ® SP6 kit (Life Technologies, Carlsbad, CA, USA). Xenopus laevis stage V-VII oocytes purchased from Xenopus1 (Dexter, MI, USA) were stored at 18°C in Incubation medium (ND96 96 with 5% dialyzed horse serum, 50μg/mL gentamycin, 100μg/mL streptomycin, 100μg/mL penicillin, and 550μg/mL sodium pyruvate). 30nL of cRNA was injected into multiple oocytes using a microinjection syringe pump (World Precision Instruments, Sarasota, FL, USA) maintained at 18°C for 48–72 hrs. Odorant blends were perfused across individual oocytes for 10–15 seconds, held at a resting membrane potential of -80 mV using an OC-725C oocyte clamp (Warner Instruments, LLC, Hamden, CT, USA). Induced currents were measured indirectly using the two-electrode voltage clamp technique (TEVC). Following each stimulus, currents were allowed to return to baseline before further stimulation. Data was captured using the Digidata 1550 B digitizer and PClamp10 software (Molecular Devices, San Jose, CA, USA). Concentration-response curves were generated by perfusing unitary odorants over oocytes at increasing concentrations from [10^-3M] to [10^-9M]. Data were analyzed using GraphPad Prism 8 (GraphPad Software Inc., La Jolla, CA, USA). At least two biological replicates were conducted at each concentration and for each compound. Data for at least seven oocytes responding to each compound was analyzed (S7 File).

AaegOR13 = molecular target: T2, AaegOR13 (Aedes aegypti, UniProt Q16Z13); test: Two-electrode voltage clamp of Xenopus laevis oocytes expressing AaegOR13/Orco (blends, unitary compounds, concentration-response); conditions: unitary compounds; for Raw data (Responses in nA), unitary compounds of Indoles 1, Alcohols 1, Alcohols 3 / Normalized response, unitary compounds of Indoles 1, Alcohols 1, Alcohols 3: individual oocytes 1-7; for Normalized response, unitary compounds, Average: average of oocytes 1-7; for Normalized response, unitary compounds of Indoles 1, Alcohols 1, Alcohols 3: normalized per oocyte
T2 sequence (Q16Z13 1-389): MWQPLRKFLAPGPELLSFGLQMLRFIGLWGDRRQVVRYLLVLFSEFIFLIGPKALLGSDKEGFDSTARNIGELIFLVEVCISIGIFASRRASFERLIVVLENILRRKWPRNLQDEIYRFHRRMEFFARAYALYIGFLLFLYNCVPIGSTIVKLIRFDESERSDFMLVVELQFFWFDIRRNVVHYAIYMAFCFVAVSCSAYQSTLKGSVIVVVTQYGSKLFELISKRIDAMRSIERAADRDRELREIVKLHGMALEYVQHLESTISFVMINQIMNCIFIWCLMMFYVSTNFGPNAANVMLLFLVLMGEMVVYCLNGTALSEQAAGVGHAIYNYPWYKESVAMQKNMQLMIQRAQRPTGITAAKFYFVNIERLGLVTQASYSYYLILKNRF
T2 sequence (Q178U6 1-478 partner): T1 sequence (Q178U6 1-478 partner)
Description: as §1, §2, §3

AaegOR15 = molecular target: T3, AaegOR15 (Aedes aegypti, UniProt A0A6B9QIR2); test: Two-electrode voltage clamp of Xenopus laevis oocytes expressing AaegOR15/Orco (blends, unitary compounds, concentration-response); conditions: unitary compounds of Alcohols 2; individual oocytes 1-10 (replicates)
T3 sequence (A0A6B9QIR2 1-390): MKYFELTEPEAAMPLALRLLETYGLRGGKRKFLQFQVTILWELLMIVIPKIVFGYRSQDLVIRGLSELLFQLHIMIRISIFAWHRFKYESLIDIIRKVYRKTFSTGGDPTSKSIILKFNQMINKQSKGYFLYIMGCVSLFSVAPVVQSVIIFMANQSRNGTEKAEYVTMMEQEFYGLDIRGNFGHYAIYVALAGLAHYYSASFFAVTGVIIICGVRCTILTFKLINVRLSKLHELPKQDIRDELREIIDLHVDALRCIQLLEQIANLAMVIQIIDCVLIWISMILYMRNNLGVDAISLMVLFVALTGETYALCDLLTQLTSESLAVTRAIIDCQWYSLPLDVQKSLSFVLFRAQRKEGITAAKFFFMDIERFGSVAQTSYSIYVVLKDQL
T3 sequence (Q178U6 1-478 partner): T1 sequence (Q178U6 1-478 partner)
Description: as §1, §2, §3

AaegOR31 = molecular target: T4, AaegOR31 (Aedes aegypti, UniProt Q16JU0); test: Two-electrode voltage clamp of Xenopus laevis oocytes expressing AaegOR31/Orco (blends, unitary compounds, concentration-response); conditions: AaegOR31, compounds of blend Alcohols 1; for Normalized response, Average, Alcohols 1 unitary compounds: average of 8 oocytes; for Raw Data (Responses in nA), Alcohols 1 unitary compounds / Normalized response, Alcohols 1 unitary compounds: individual oocytes (Oocyte 1-8); for Normalized response, Alcohols 1 unitary compounds: normalized to the strongest compound per oocyte
T4 sequence (Q16JU0 1-381): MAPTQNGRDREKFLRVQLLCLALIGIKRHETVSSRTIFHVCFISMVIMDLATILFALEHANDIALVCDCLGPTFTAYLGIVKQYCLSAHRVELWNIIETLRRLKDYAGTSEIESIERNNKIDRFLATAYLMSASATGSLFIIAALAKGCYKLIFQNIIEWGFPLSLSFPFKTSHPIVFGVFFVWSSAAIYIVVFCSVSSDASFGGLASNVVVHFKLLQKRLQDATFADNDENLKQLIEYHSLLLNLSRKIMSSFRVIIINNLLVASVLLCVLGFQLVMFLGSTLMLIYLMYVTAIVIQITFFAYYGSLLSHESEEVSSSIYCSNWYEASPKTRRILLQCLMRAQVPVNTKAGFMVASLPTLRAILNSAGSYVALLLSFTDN
T4 sequence (Q178U6 1-478 partner): T1 sequence (Q178U6 1-478 partner)
Description: as §1, §2, §3

| Compound | Raw Data (Responses in nA), Alcohols 3 unitary compounds (AaegOR28) | Raw data (Responses in nA), unitary compounds of Indoles 1, Alcohols 1, Alcohols 3 (AaegOR13) | Raw data (Responses in nA), compounds of blend Alcohols 2 (AaegOR15) | Normalized response, Average, Alcohols 1 unitary compounds (AaegOR31) | Raw Data (Responses in nA), Alcohols 1 unitary compounds (AaegOR31) | Normalized response, Alcohols 1 unitary compounds (AaegOR31) | Normalized response, unitary compounds, Average (AaegOR13) | Normalized response, unitary compounds of Indoles 1, Alcohols 1, Alcohols 3 (AaegOR13) | Normalized response, Average, Alcohols 3 unitary compounds (AaegOR28; average of 10 oocytes) | Normalized response, Alcohols 3 unitary compounds (AaegOR28; individual oocytes 1-10, normalized to largest response of each oocyte) |
| --- | --- | --- | --- | --- | --- | --- | --- | --- | --- | --- |
| C=CCc1ccc(O)c(OC)c1 [Eugenol] | 0 nA | 20.0 nA and 430.0 nA and 105.0 nA and 220.0 nA and 160.0 nA (2×) and 100.0 nA | 0.0 nA (2×) and 5.0 nA and 10.0 nA (3×) and 15.0 nA (2×) and 30.0 nA and 20.0 nA |  |  |  |  |  |  |  |
| CC(C)=CCC/C(C)=C/CO [Geraniol] | 0 nA |  |  |  |  |  |  |  |  |  |
| C=CC1(C)CCC(C(C)(C)O)O1 (stereo not drawn) [Linalool Oxide] | 0 nA |  | 0.0 nA (6×) and 10.0 nA (2×) and 5.0 nA (2×) |  |  |  |  |  |  |  |
| CC(C)O [2-propanol] |  | 0.0 nA |  | 10.7 | 10.0 nA and 20.0 nA and 15.0 nA and 0.0 nA (5×) | 5.9 and 50.0 and 30.0 and 0.0 (5×) | 0.0 | 0.0 |  |  |
| C=C[C@@](C)(O)CCC=C(C)C [(S)-(+)-linalool] | 10 nA (2×) and 5 nA (5×) and 0 nA and 15 nA (2×) |  |  |  |  |  |  |  | 19.1 | 33.3 and 14.3 and 25.0 and 0.0 and 30.0 and 16.7 (2×) and 12.5 and 22.2 and 20 |
| CO [methanol] |  | 0.0 nA |  | 0.0 | 0.0 nA | 0.0 | 0.0 | 0.0 |  |  |
